Assay results from patent US12662464B2, “Degraders of cyclin-dependent kinase 12 (CDK12) and uses thereof” (DANA-FARBER CANCER INSTITUTE, INC., priority 2019, dated 2026).

Columns and labels:
CDK12 = target: T1, CDK12 (Homo sapiens, UniProt Q9NYV4); assay: CDK12 degradation by Western blotting; type: cell-based; conditions: degradation of CDK12 at 100 nM
T1 construct: endogenous in cells; host or cells: Jurkat (human T-ALL)
Description: Cells treated with DMSO or with the CDK12 degraders BSJ-04-023, BSJ-04-071, BSJ-04-076, BSJ-04-077, BSJ-04-078, BSJ-04-079, and BSJ-04-100 at the indicated concentrations were collected and examined with Western blots at 6 hours.
Cells treated with DMSO or with the CDK12 degraders BSJ-04-023, BSJ-04-086, BSJ-04-089, BSJ-04-098, BSJ-04-099, and BSJ-04-100 at the indicated concentrations were collected and examined with Western blots at 6 hours.
Assays for the degradation of CDK12 by exemplary compounds of Formula (I) were conducted. The results for the assays for the degradation of CDK12 by exemplary CDK12 degrader compounds depicted in Table 1 are shown in FIGS. 1-3.

[1] = Pharmacokinetic study, single IV injection in mice; type: in vivo; conditions: 2 mg/kg IV, male C57BI/6 mice, plasma
Description: Standard pharmacokinetic parameters were determined by administration of exemplary compound BSJ-05-063 to male C57BI/6 mice, and conducting standard pharmacokinetic studies. A single 2 mg/kg intravenous (IV) injection of compound BSJ-05-063 solution in […] DMSO/Cremophor EL® (oxirane, propane-1,2,3-triol)/water was delivered, and the pharmacokinetic parameters were evaluated. The plasma concentrations of BSJ-05-063 were reported at each of the 8 time points (5 minutes, 15 minutes, 30 minutes, 1 hours, 2 hours, 4 hours, 6 hours, and 8 hours post-dosing) are the average values from 3 test animals (male C57BI/6 mice).

CDK12, CDK13, CDK9 = assay: Rescue of degradation by pre-treatment, Western blot in Jurkat and Molt 4 cells; type: cell-based, human; conditions: 2 hour pre-treatment with THZ-5-31, Carfilzomib, thalidomide or MLN4924, then 250 nM for 6 hours
Description: FIGS. 1-3 show the degradation rescued by pre-treatment with Carlfilzomib and exemplary CDK12 irreversible inhibitor, THZ-5-31
The degradation of CDK12, CDK13, CDK9 was rescued by 2 hour pre-treatment with exemplary CDK12 inhibitor THZ-5-31, exemplary […] Carfilzomib (CFZ), thalidomide (Thal.) and MLN4924 (inhibitor of NEDD8-Activating Enzyme (NAE)) at the indicated concentrations before treatment with exemplary CDK12 inhibitor BSJ-0423 (BSJ-04-023) at 250 nM for 6 hours. BSJ-04-023 is of formula: […]

T1 sequence (Q9NYV4 whole entry): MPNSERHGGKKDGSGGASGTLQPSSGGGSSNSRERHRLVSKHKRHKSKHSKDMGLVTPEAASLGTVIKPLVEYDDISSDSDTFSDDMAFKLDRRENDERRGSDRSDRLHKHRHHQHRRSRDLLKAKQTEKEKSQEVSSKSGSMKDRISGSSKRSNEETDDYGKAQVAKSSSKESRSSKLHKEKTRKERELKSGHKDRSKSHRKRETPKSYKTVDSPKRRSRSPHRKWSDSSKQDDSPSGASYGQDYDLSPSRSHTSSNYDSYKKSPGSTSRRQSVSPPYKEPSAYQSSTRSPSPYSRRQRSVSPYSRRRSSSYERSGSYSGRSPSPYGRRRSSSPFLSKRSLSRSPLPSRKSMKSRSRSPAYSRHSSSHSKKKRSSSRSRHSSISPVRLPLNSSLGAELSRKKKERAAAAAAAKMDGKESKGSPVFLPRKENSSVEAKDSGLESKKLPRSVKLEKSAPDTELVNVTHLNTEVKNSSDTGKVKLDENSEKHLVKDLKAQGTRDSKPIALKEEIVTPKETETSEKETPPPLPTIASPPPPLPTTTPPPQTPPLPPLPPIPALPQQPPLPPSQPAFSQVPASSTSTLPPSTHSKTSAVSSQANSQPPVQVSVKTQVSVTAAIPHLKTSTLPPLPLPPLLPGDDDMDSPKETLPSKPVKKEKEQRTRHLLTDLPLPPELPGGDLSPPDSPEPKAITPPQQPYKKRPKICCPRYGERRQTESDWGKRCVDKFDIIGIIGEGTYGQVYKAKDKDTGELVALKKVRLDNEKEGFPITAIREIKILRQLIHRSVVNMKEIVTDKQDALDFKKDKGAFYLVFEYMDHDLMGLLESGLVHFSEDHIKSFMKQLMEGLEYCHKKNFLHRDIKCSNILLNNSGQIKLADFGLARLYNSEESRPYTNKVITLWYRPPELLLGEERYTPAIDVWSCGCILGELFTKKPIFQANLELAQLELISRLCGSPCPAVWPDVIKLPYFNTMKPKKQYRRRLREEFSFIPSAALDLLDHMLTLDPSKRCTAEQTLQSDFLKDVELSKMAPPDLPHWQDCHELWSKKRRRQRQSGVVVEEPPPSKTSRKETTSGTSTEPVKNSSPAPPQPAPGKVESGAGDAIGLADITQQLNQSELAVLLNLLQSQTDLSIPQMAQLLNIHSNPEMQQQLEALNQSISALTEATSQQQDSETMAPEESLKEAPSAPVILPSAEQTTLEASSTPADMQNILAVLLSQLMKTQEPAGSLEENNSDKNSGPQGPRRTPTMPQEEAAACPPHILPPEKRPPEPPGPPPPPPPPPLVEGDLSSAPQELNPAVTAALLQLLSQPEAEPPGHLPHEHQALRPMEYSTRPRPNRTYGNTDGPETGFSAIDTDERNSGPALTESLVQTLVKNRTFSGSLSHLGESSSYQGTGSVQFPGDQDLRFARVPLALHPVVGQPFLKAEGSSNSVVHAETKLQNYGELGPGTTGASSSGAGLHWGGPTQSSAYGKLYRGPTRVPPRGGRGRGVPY
T1 sequence (O75909 whole entry partner): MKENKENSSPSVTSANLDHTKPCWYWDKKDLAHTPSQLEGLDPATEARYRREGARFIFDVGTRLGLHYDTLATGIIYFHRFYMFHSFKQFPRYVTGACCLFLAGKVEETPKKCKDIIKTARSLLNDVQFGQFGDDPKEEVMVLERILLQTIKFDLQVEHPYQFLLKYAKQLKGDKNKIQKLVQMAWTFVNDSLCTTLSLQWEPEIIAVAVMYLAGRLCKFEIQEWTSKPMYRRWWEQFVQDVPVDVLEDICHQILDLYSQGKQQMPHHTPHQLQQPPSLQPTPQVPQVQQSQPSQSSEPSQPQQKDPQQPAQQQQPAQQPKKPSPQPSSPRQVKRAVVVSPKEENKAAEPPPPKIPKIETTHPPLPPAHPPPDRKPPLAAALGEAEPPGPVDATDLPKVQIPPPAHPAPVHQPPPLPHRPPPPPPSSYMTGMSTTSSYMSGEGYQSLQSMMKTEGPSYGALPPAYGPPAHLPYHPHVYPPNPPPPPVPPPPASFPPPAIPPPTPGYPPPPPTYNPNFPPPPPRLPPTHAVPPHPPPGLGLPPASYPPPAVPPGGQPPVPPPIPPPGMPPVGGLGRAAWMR

SMILES | CDK12 degradation activity (CDK12) | further results
O=C(COc1cccc2c1C(=O)N(C1CCC(=O)NC1=O)C2=O)NCCOCCOCCOCCN1CCC[C@@H](Nc2ncc(Cl)c(-c3c[nH]c4ccccc34)n2)C1 (stereo partly drawn) [Compound 1-5, N-(2-(2-(2-(2-((R)-3-((5-chloro-4-(1H-indol-3-yl)pyrimidin-2-yl)amino)piperidin-1-yl)ethoxy)ethoxy)ethoxy)ethyl)-2-((2-(2,6-dioxopiperidin-3-yl)-1,3-dioxoisoindolin-4-yl)oxy)acetamide] | ++ (“++” indicates 80% degradation) | –
O=C(COc1cccc2c1C(=O)N(C1CCC(=O)NC1=O)C2=O)NCCCCCN1CCN(c2ccc(C(=O)N3CCC[C@@H](Nc4ncc(Cl)c(-c5c[nH]c6ccccc56)n4)C3)cc2)CC1 (stereo partly drawn) [Compound 1-9, N-(5-(4-(4-((R)-3-((5-chloro-4-(1H-indol-3-yl)pyrimidin-2-yl)amino)piperidine-1-carbonyl)phenyl)piperazin-1-yl)pentyl)-2-((2-(2,6-dioxopiperidin-3-yl)-1,3-dioxoisoindolin-4-yl)oxy)acetamide] | ++ (“++” indicates 80% degradation) | –
O=C(COc1cccc2c1C(=O)N(C1CCC(=O)NC1=O)C2=O)NCCCN1CCN(c2ccc(C(=O)N3CCC[C@@H](Nc4ncc(Cl)c(-c5c[nH]c6ccccc56)n4)C3)cc2)CC1 (stereo partly drawn) [Compound 1-10, N-(3-(4-(4-((R)-3-((5-chloro-4-(1H-indol-3-yl)pyrimidin-2-yl)amino)piperidine-1-carbonyl)phenyl)piperazin-1-yl)propyl)-2-((2-(2,6-dioxopiperidin-3-yl)-1,3-dioxoisoindolin-4-yl)oxy)acetamide] | + (“+” indicates 60% degradation of CDK12 at 100 nM) | –
O=C(COc1cccc2c1C(=O)N(C1CCC(=O)NC1=O)C2=O)NCCCCCCCN1CCC(C(=O)N2CCC[C@@H](Nc3ncc(Cl)c(-c4c[nH]c5ccccc45)n3)C2)CC1 (stereo partly drawn) [Compound 1-12, N-(7-(4-((R)-3-((5-chloro-4-(1H-indol-3-yl)pyrimidin-2-yl)amino)piperidine-1-carbonyl)piperidin-1-yl)heptyl)-2-((2-(2,6-dioxopiperidin-3-yl)-1,3-dioxoisoindolin-4-yl)oxy)acetamide] | ++ (“++” indicates 80% degradation) | –
CC(C)S(=O)(=O)c1ccccc1Nc1nc(N[C@@H]2CCCN(CCCCCCCNC(=O)COc3cccc4c3C(=O)N(C3CCC(=O)NC3=O)C4=O)C2)ncc1Cl (stereo partly drawn) [Compound 1-14, N-(7-((R)-3-((5-chloro-4-((2-(isopropylsulfonyl)phenyl)amino)pyrimidin-2-yl)amino)piperidin-1-yl)heptyl)-2-((2-(2,6-dioxopiperidin-3-yl)-1,3-dioxoisoindolin-4-yl)oxy)acetamide] | +++ (“+++” indicates a greater than 90% degradation) | –
Cc1ncsc1-c1ccc([C@H](C)NC(=O)[C@@H]2C[C@@H](O)CN2C(=O)[C@@H](NC(=O)CCCCCCCCCCN2CCC[C@@H](Nc3ncc(Cl)c(Nc4ccccc4S(=O)(=O)C(C)C)n3)C2)C(C)(C)C)cc1 [Compound 1-15, (2S,4R)-1-((S)-2-(11-((R)-3-((5-chloro-4-((2-(isopropylsulfonyl)phenyl)amino)pyrimidin-2-yl)amino)piperidin-1-yl)undecanamido)-3,3-dimethylbutanoyl)-4-hydroxy-N—((S)-1-(4-(4-methylthiazol-5-yl)phenyl)ethyl)pyrrolidine-2-carboxamide] | +++ (“+++” indicates a greater than 90% degradation) | AUC % Extrap [1]: 6.27 % Extrap; AUCINF_obs [1]: 368545 ng·min/mL; Cl_obs [1]: 6.04 mL/min/kg; MRTINF_obs [1]: 2.41 h; T1/2 [1]: 2.21 h; Tmax [1]: 4.8 min; Vss_obs [1]: 0.84 L/kg
Cc1ncsc1-c1ccc([C@H](C)NC(=O)[C@@H]2C[C@@H](O)CN2C(=O)[C@@H](NC(=O)CCOCCOCCOCCN2CCC[C@@H](Nc3ncc(Cl)c(Nc4ccccc4S(=O)(=O)C(C)C)n3)C2)C(C)(C)C)cc1 [Compound 1-16, (2S,4R)-1-((S)-14-(tert-butyl)-1-((R)-3-((5-chloro-4-((2-(isopropylsulfonyl)phenyl)amino)pyrimidin-2-yl)amino)piperidin-1-yl)-12-oxo-3,6,9-trioxa-13-azapentadecan-15-oyl)-4-hydroxy-N—((S)-1-(4-(4-methylthiazol-5-yl)phenyl)ethyl)pyrrolidine-2-carboxamide] | +++ (“+++” indicates a greater than 90% degradation) | –
O=C(COc1cccc2c1C(=O)N(C1CCC(=O)NC1=O)C2=O)NCCCCCCCN1CCC[C@@H](Nc2ncc(Cl)c(-c3c[nH]c4ccccc34)n2)C1 (stereo partly drawn) [Compound I-1, N-(7-((R)-3-((5-chloro-4-(1H-indol-3-yl)pyrimidin-2-yl)amino)piperidin-1-yl)heptyl)-2-((2-(2,6-dioxopiperidin-3-yl)-1,3-dioxoisoindolin-4-yl)oxy)acetamide] | +++ (“+++” indicates a greater than 90% degradation) | degradation of CDK12, CDK13, CDK9 after pre-treatment (CDK12, CDK13, CDK9): rescued
O=C(COc1cccc2c1C(=O)N(C1CCC(=O)NC1=O)C2=O)NCCCCCCN1CCC[C@@H](Nc2ncc(Cl)c(-c3c[nH]c4ccccc34)n2)C1 (stereo partly drawn) [Compound I-2, N-(6-((R)-3-((5-chloro-4-(1H-indol-3-yl)pyrimidin-2-yl)amino)piperidin-1-yl)hexyl)-2-((2-(2,6-dioxopiperidin-3-yl)-1,3-dioxoisoindolin-4-yl)oxy)acetamide] | ++ (“++” indicates 80% degradation) | –
